Our source for the pIC50 values is the supplement of paper PMC12076712.

In general, pIC50 refers to the negative decadic logarithm of the IC50, by convention in mol/L. A higher pIC50 goes with a low IC50.

Bounds are passed on as bounds.

Test in all cases: pIC50, kinobeads binding competition
In one assay the target is T1, ADCK1 (UniProt Q86TW2).
T1 sequence (whole entry): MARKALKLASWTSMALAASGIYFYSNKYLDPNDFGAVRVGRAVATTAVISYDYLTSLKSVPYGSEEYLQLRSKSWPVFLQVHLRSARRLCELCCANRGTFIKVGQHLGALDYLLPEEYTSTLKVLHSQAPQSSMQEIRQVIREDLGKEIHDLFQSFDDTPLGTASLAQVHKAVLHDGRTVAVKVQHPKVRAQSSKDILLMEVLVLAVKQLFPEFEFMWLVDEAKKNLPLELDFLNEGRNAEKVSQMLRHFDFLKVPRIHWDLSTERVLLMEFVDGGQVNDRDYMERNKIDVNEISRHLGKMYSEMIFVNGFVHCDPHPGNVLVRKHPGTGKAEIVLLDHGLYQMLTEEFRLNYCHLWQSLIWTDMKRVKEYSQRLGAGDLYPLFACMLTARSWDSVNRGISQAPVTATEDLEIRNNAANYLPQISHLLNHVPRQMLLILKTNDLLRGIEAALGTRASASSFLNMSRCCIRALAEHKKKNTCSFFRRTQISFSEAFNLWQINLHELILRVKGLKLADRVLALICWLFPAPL
The settings on record: cell material: Lysate mix. In short, it runs like this: (§1)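 Jurkat cells were exposed alive to nine compound concentrations (top 30 μM, 1:4 steps) or vehicle for 60 min at 37 °C and then lysed. In a second format, nine concentrations (top 30 μM, 1:5 steps) were incubated for 60 min at 4 °C with Jurkat lysate or with a 1:1:1:1 lysate mix of HEK293, K-562, HepG2 and placenta. Proteins captured on Kinobeads were digested and quantified by TMT10 LC-MS/MS. pIC50 values were derived from logistic dose-response fits (R drc package) of fold changes relative to vehicle, in biological duplicates.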

The target of the next assay is SRPK1 (UniProt Q96SB4). The method, boiled down:
as §1

A further assay has as its target UniProt Q9P289. In short, it runs like this: as §1
The next assay deals with UniProt P00519. The method, boiled down:
as §1

The target of a further assay is T2, UniProt P52564.
T2 sequence (whole entry): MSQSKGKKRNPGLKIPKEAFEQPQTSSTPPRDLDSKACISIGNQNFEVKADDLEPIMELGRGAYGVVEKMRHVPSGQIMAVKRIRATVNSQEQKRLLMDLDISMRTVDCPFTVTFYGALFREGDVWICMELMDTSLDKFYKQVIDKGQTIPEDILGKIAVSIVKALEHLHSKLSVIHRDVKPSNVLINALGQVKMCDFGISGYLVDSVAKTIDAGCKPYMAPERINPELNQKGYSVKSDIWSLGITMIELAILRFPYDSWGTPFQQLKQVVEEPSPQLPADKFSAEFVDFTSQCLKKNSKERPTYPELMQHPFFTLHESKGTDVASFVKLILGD
In short, it runs like this:
as §1

In a further assay the target is BTK (UniProt Q06187). The settings on record: cell material: Lysate mix. The method, boiled down:
as §1

The next assay concerns the target DAPK1 (UniProt P53355). The settings on record: cell material: Lysate mix. In short, it runs like this: as §1
The target of the next assay is LIMK2 (UniProt P53671). In short, it runs like this: as §1
Sequence of LIMK2 (P53671 whole entry, looked up): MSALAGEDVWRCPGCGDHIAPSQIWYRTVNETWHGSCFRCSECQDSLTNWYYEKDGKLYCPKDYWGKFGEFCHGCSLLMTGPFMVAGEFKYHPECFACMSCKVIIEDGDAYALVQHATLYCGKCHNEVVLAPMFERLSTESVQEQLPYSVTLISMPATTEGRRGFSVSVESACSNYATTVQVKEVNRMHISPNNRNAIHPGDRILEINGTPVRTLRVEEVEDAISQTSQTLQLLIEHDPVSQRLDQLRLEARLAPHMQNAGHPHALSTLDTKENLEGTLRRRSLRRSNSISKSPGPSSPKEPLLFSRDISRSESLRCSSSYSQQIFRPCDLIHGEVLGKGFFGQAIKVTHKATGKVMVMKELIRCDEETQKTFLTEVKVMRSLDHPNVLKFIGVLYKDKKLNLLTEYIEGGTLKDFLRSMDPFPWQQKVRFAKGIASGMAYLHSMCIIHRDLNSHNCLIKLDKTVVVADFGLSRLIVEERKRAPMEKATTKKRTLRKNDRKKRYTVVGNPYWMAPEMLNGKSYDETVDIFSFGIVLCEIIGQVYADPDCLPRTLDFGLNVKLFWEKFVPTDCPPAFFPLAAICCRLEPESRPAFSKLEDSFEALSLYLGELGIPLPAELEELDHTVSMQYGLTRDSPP
In the next assay the target is T3, UniProt Q96D53.
T3 sequence (whole entry): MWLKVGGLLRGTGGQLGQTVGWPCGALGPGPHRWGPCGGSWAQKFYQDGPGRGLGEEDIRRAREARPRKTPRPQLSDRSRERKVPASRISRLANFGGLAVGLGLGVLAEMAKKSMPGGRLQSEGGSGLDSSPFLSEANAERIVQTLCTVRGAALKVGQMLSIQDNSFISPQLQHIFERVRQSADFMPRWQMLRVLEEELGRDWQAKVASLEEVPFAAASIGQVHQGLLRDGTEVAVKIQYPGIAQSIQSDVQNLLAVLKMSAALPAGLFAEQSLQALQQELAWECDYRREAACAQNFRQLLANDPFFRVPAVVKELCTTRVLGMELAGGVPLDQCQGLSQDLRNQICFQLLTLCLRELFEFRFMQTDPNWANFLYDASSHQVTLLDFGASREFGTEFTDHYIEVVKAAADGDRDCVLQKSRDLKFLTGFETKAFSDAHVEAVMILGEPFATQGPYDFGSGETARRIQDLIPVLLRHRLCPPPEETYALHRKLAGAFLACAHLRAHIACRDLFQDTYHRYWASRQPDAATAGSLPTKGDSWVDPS
The method, boiled down:
as §1

In a further assay the target is UniProt P16234. The settings on record: cell material: Lysate mix. In short, it runs like this: as §1
Sequence of UniProt P16234 (P16234 whole entry): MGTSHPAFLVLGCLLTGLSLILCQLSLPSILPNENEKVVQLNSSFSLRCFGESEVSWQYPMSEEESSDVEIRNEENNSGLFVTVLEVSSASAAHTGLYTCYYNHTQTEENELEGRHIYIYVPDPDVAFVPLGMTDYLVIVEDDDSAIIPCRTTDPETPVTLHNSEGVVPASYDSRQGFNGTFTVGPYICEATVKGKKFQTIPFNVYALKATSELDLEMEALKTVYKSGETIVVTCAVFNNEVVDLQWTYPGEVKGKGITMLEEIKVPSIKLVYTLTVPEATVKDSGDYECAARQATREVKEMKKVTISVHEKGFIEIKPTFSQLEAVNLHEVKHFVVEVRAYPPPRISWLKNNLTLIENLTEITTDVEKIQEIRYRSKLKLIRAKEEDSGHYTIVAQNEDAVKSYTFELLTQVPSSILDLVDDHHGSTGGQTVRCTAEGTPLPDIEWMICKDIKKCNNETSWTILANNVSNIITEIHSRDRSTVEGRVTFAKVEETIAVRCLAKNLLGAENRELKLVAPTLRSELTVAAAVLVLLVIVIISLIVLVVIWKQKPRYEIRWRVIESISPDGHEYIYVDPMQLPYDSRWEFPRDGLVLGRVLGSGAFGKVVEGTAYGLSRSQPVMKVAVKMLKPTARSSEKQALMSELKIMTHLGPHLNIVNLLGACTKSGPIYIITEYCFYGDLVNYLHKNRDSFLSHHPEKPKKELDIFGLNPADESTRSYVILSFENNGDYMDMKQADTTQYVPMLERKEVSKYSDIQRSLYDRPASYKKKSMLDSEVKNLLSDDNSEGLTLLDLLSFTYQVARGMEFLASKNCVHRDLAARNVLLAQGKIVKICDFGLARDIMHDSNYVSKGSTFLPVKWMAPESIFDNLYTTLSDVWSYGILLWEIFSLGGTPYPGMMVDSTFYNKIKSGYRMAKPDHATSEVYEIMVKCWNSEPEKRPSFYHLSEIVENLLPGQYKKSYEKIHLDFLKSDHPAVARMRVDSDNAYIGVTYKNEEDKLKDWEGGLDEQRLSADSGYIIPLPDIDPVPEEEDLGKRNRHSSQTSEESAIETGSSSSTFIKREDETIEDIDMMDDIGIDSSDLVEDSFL

Sequence of DAPK1 (P53355 whole entry, looked up): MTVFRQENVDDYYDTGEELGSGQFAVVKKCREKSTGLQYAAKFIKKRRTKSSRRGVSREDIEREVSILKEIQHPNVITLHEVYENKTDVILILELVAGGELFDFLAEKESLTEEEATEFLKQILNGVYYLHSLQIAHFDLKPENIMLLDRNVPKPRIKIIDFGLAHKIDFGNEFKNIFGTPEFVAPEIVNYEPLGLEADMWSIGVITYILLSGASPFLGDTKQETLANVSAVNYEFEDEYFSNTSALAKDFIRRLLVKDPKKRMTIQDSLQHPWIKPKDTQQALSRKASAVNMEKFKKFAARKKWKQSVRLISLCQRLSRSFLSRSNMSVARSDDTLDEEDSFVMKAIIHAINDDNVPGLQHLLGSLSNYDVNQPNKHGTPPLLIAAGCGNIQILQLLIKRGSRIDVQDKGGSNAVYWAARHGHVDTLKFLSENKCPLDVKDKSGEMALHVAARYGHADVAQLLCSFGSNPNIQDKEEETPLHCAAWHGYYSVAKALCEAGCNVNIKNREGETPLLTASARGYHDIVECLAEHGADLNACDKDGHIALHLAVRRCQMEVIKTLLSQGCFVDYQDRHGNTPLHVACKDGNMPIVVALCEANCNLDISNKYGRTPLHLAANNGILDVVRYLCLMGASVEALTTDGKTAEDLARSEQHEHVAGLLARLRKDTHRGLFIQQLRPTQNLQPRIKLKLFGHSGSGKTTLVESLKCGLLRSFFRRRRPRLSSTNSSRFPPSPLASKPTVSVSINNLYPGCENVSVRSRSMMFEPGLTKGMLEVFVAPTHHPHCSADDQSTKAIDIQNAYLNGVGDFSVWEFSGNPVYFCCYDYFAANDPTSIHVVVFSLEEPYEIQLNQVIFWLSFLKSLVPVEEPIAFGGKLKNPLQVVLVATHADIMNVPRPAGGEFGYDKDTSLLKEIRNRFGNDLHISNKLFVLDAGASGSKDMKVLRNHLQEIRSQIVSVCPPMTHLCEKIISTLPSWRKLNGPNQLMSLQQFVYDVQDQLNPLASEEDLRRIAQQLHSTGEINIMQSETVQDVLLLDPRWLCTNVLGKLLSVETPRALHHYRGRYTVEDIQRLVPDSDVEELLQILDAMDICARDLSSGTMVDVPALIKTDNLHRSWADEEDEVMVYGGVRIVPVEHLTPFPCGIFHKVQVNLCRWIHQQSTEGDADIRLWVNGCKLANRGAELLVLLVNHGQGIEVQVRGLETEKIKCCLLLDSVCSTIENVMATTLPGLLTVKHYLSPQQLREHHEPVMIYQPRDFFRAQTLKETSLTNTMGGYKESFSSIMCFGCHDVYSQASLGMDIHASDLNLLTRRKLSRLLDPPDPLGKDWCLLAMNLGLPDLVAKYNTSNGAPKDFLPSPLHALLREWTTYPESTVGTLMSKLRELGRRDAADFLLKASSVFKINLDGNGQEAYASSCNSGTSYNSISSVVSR
Sequence of BTK (Q06187 whole entry): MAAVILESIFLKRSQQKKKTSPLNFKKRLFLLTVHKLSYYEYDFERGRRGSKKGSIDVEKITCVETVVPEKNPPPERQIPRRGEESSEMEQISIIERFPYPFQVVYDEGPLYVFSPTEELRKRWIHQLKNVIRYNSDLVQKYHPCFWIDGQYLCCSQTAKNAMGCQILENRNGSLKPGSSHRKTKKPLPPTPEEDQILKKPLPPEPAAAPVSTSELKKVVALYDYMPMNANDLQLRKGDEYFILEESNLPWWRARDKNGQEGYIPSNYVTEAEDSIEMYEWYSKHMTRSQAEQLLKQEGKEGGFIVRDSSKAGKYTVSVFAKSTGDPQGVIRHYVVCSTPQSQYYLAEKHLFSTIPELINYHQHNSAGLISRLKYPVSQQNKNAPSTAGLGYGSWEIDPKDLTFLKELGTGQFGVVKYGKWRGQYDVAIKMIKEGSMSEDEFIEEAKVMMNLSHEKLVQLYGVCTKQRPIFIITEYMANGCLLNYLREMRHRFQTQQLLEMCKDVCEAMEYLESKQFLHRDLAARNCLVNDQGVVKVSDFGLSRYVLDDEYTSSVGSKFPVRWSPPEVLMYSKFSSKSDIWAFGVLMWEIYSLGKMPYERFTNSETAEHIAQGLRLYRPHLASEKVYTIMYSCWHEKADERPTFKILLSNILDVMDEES
Sequence of SRPK1 (Q96SB4 whole entry): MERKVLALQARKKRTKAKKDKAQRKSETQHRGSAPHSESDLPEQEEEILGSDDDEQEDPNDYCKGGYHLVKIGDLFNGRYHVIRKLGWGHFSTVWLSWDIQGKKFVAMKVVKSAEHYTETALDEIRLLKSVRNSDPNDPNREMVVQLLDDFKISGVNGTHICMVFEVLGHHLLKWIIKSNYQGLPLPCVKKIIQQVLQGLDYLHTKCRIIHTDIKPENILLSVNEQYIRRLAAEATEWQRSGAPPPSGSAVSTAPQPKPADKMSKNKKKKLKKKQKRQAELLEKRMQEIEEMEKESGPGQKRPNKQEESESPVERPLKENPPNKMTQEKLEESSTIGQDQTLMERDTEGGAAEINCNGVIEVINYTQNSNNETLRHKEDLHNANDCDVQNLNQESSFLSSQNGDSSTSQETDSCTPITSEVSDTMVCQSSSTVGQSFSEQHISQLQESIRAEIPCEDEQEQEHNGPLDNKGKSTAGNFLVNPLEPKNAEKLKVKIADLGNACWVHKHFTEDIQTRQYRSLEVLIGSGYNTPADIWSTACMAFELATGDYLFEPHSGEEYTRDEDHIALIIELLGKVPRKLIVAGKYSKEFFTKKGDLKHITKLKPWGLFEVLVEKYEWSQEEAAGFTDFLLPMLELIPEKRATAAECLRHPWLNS
Sequence of UniProt Q9P289 (Q9P289 whole entry, looked up): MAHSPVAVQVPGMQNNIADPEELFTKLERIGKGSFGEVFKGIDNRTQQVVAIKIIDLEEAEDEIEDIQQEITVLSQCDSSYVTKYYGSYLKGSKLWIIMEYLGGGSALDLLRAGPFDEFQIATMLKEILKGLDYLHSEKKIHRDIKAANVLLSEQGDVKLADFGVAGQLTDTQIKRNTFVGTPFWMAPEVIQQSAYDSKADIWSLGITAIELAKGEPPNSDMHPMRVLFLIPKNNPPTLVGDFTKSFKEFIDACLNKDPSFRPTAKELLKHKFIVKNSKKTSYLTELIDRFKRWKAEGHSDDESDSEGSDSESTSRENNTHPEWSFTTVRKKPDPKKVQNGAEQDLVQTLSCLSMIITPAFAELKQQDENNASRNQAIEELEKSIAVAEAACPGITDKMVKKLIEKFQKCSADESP

Regarding `Cc1cc(Nc2cc(C(=O)NCCNC(=O)OC3CC/C=C/CCC3)nc(N3CCN(Cc4ccc(S(=O)(=O)F)cc4)CC3)n2)n[nH]1` (configuration not stated), the pIC50 on ADCK1, on SRPK1 (cell material: Lysate mix), at UniProt Q9P289 (cell material: Lysate mix), at UniProt P00519 (cell material: Lysate mix), at UniProt P52564 (cell material: Lysate mix) and at BTK was below 4.52 each time. For the same molecule, the pIC50 on DAPK1 and on LIMK2 (cell material: Lysate mix) was below 4.52 each time.
On to `C#CCNC(=O)c1cc(Nc2cc(C3CC3)[nH]n2)nc(N2CCN(Cc3ccc(S(=O)(=O)F)cc3)CC2)n1`, for which the pIC50 at ADCK1 was below 4.52; at SRPK1 (cell material: Jurkat cells), below 4.52; at UniProt Q96D53 (cell material: Jurkat cells), below 4.52; on UniProt Q9P289 (cell material: Jurkat cells) it was 6.36; on UniProt Q9P289 (cell material: Lysate mix), below 4.52; on UniProt P00519 (cell material: Jurkat cells), 5.64. Moreover, the pIC50 is 4.67 at UniProt P00519 (cell material: Jurkat lysate); 4.67 on UniProt P00519 (cell material: Lysate mix); 5.61 on UniProt P52564 (cell material: Jurkat cells); below 4.52 on UniProt P52564 (cell material: Jurkat lysate); 5.21 at UniProt P52564 (cell material: Lysate mix); below 4.52 on UniProt P16234. In addition, the pIC50 at DAPK1 was below 4.52; on LIMK2 (cell material: Jurkat cells), 6.52; at LIMK2 (cell material: Jurkat lysate), 5.16; at LIMK2 (cell material: Lysate mix), 5.53.
Turning to `CCNC(=O)c1cc(Nc2cc(C3CC3)[nH]n2)nc(N2CCN(Cc3ccc(S(=O)(=O)F)cc3)CC2)n1`, the pIC50 was 5.2 on UniProt P52564 (cell material: Lysate mix), below 4.52 at UniProt P16234, 4.6 on DAPK1 and 5.38 on LIMK2 (cell material: Lysate mix).
As for `C#CCNC(=O)c1cc(Nc2cc(C)[nH]n2)nc(N2CCN(Cc3ccc(S(=O)(=O)F)cc3)CC2)n1`, the pIC50 on ADCK1, on UniProt P00519 (cell material: Lysate mix), on UniProt P16234, on BTK and on DAPK1 was below 4.52 each time.
Take `O=C(NCCNC(=O)c1cc(Nc2cc(C3CC3)[nH]n2)nc(N2CCN(Cc3ccc(S(=O)(=O)F)cc3)CC2)n1)OC1CC/C=C/CCC1` (configuration not stated): the pIC50 on ADCK1, on SRPK1 (cell material: Jurkat cells), at UniProt Q96D53 (cell material: Jurkat cells), at UniProt Q96D53 (cell material: Lysate mix), on UniProt Q9P289 (cell material: Jurkat lysate) and on UniProt Q9P289 (cell material: Lysate mix) was below 4.52 in each case. In addition, the pIC50 on UniProt P00519 (cell material: Jurkat cells) is 4.86; at UniProt P00519 (cell material: Jurkat lysate), below 4.52; on UniProt P00519 (cell material: Lysate mix), below 4.52; at UniProt P52564 (cell material: Jurkat cells), below 4.52; at UniProt P52564 (cell material: Jurkat lysate), below 4.52; at UniProt P52564 (cell material: Lysate mix), below 4.52. The pIC50 on UniProt P16234 was below 4.52; on BTK, below 4.52; on DAPK1, below 4.52; on LIMK2 (cell material: Jurkat cells), 6.33; on LIMK2 (cell material: Jurkat lysate), below 4.52; at LIMK2 (cell material: Lysate mix), below 4.52.
On to `CCNC(=O)c1cc(Nc2cc(C)[nH]n2)nc(N2CCN(Cc3ccc(S(=O)(=O)F)cc3)CC2)n1`, for which the negative-log IC50 (pIC50) at ADCK1 is below 4.52; on UniProt Q96D53 (cell material: Lysate mix), below 4.52; at UniProt P00519 (cell material: Lysate mix), below 4.52; at UniProt P52564 (cell material: Lysate mix), 4.62; on BTK it was below 4.52; at LIMK2 (cell material: Lysate mix) it was 4.62.
